# Patent US20240400542A1 (University of Virginia Patent Foundation, priority 2021, published 2024)
# Tests used:
# PFKL [1] = target: T1, PFKL (Homo sapiens, UniProt P17858); assay: In situ gel-based ABPP, blockade of TH211 probe labeling in HEK293T cells; assay type: cell-based; conditions: then 25 μM TH211 2 h; for probinding activity (blockade of TH211 probe labeling), protein at ˜80 molecular weight: HEK293T cells in situ, 1 μM compound 1 h
# T1 construct: endogenous in cells; host or cells: HEK293T
# T1 sequence (P17858 1-780): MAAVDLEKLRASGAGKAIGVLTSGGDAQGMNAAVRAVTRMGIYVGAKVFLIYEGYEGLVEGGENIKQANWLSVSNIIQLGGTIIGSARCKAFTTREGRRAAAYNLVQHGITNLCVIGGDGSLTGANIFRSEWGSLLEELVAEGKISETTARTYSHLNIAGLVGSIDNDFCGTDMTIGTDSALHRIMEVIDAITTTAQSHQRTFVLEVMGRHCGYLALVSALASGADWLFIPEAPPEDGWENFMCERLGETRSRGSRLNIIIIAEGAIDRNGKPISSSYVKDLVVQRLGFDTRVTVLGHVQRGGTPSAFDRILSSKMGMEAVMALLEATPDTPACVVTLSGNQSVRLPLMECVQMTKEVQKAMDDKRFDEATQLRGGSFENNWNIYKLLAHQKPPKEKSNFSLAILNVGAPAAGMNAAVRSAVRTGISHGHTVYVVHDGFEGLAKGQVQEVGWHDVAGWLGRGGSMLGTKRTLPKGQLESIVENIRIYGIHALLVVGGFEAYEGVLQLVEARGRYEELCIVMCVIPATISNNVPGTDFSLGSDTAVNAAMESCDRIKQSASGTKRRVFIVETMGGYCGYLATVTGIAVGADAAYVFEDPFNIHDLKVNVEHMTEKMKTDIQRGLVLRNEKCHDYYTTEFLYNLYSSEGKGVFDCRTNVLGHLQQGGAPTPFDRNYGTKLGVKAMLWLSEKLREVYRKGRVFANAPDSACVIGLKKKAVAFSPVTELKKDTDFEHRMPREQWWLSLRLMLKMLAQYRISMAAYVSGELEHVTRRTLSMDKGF
# Protocol: HEK293T cells were incubated in 10 cm petri dishes with DMEM medium supplemented with 10% fetal bovine serum and 1% L-glutamine until the confluency reached about 90%. Aspirate the medium and then add serum-free-medium (SFM) with vehicle only (DMSO) or SuTEx compounds in DMSO, which afforded final concentrations of 0.1% DMSO. After incubation at 37° C. for 1 hrs in CO2 incubator, the medium was aspirated and 25 μM of probe TH211 in SFM was added. After incubation at 37° C. for 2 hrs, the medium was aspirated and the cells were washed off in cold PBS. Centrifuge at 400×g for 5 min to pellet and resuspend pellet again in PBS for 2× total washes. The cell pellets were resuspended and lysed by sonication (1 sec pulse, 20% amplitude, 3 times) in PBS in the presence of EDTA-free protease inhibitor cocktail tablet (Pierce Biotechnology, Waltham, Massachusetts, United States of America). The cell lysates were subject to ultracentrifugation (100,000×g, 45 min at 4° C.) to separate the cytosolic fraction in the supernatant and the membrane fraction as a pellet. Protein concentrations in soluble fraction were measured by the Bio-Rad DC protein assay (Bio-Rad Laboratories, Hercules, California, United States of America). Proteome aliquots (2 mg/mL, 50 μL) were conjugated with fluorophore which was accomplished by copper-catalyzed azide-alkyne cycloaddition (CuAAC) with rhodamine-azide (TAMRA-azide, 1.25 mM, 1 μL, final concentration of 25 μM) in the presence of tris(2-carboxyethyl)phosphine (TCEP, 50 mM fresh in water, 1 μL, final concentration of 1 mM), tris[(1-benzyl-1H-1,2,3-triazol-4-yl)methyl]amine (TBTA, 1.7 mM in 4:1 t-butanol/DMSO, 3 μL, final concentration of 100 μM) and CuSO4 (50 mM, 1 μL, final concentration of 1 mM). After 1 hr incubation at room temperature, reactions were quenched by adding 4×SDS-PAGE loading buffer and beta-mercaptoethanol (17 μL) and samples were resolved by SDS-PAGE followed by in-gel fluorescence scanning.
# (§1) Some SuTEx analogues with RF001 fragment were synthesized and characterized. The in situ competition assay was then conducted, during which HEK293T cells were treated with 1 μM of a SuTEx analogue for 1 h, followed by treatment with 25 μM of TH211 as the probe for 2 h. […] The analogues with electron-donating groups like methyl or methoxy on the para position of phenyl performed better than those with electron-withdrawing groups. Under the same condition, the IC5o of TH220 was determined as 305.6 nM. The identity of the bound protein was studied by LC-MS/MS. The assay results indicated PFKL as the potential target and that binding sites include Y674 and K677, since the ratio trends are the same as that found in the in situ competition assay. To study selective targeting of PFKL by the series of SuTEx analogues, Fag-PFKL, Flag-PFKM, and Flag-PFKP were overexpressed in HEK293T cells and in vitro competition assays were performed for comparison. […] To optimize these SuTEx ligands, another series of derivatives were synthesized and evaluated with TH233 as a negative control and TH220 as positive control, respectively. […] Compared to TH220, the probinding activity of XJ-2-103 with trifluoromethyl group at para position of the phenyl ring is not as good, which is consistent with the results shown in FIG. 18A.
# [2] = HPLC solution reactivity of probe with p-cresol (tyrosine mimetic); assay type: physicochemical; conditions: UV 254 nm, TMG base, 0° C., longest time point tested 90 min
# Protocol: (§2) Briefly, reaction progress of KY-26 or XO44 with p-cresol or n-butylamine (16.5 μmol, 3.3 eq.) in the presence of TMG base (1,1,3,3-tetramethylguanidine, 1.1 eq) was evaluated by monitoring probe consumption and quantified based on the signal from the caffeine standard using HPLC. Synthetic peptide reactions were conducted by mixing the peptide (Ac-RLNERHYGGLTGLNK-NH2, 50 nmol, 1.0 eq.) with 1.1 eq of TMG. KY-26 (550 nmol, 11.0 eq) was added to the mixture and the reaction was kept at 37° C. until the reaction achieved at least 50% conversion.
# (§3) More particularly, an acetonitrile solution of p-cresol or n-butylamine (16.5 μmol, 3.3 eq.) was mixed with 1.1 eq of TMG. KY-26 or XO44 in ACN:DMF=6:4 (5 μmol, 1.0 eq.) was added to the mixture and the reaction was kept at 0° C. The final molarity for KY-26 or XO44 is 10 mM. Aliquots (50 μl) of the reaction were taken and quenched by adding acetic acid (0.5 M final, 5.0 μmol) and caffeine standard (0.05 M final, 0.5 μmol) at ten-minute intervals for 1.5 hrs. 1.0 μL sample was injected and analyzed by reverse-phase HPLC with mobile phases A (H2O, 0.1% AcOH) and B (CH3CN, 0.1% AcOH) with a gradient of 0-15-85-100% B in 0-0.5-6.5-7 min. UV measurements taken at 254 nm. Reaction progress was evaluated by monitoring KY-26 or XO44 consumption and quantified based on the signal from the caffeine standard. […]
# [3] = HPLC solution reactivity of probe with n-butylamine (lysine mimetic); assay type: physicochemical; conditions: TMG base, 0° C., KY-26 compared with p-cresol
# Protocol: as §2, §3
# PFKL [4] = target: T1, PFKL; assay: SILAC competitive chemical proteomic assay (TH211 probe, LC-MS/MS); assay type: cell-based; conditions: HEK293T in situ, vehicle (light) vs inhibitor 2 μM (heavy) 1 hr, then TH211 50 μM 2 h; protein/site not given
# Protocol: The light and heavy proteomes (2.3 mg/mL, 432 μL) prepared from HEK293T cells that were pretreated in situ with vehicle (DMSO) or the inhibitor (2 μM), respectively, at 37° C. for 1 hr followed by probe TH211 treatment (50 μM) for 2 h, were directly were subjected to click reaction with the desthiobiotin-PEG3-azide (10 mM in DMSO, 10 μL, final concentration 200 μM) in the presence of TCEP (50 mM, 10 μL), TBTA (1.7 mM, 33 μL) and CuSO4 (50 mM, 10 μL) at room temperature for 1 hr. The light and the heavy samples were mixed in the chloroform-methanol extraction step. The subsequent steps including reduction with dithiothreitol, alkylation with iodoacetamide, digestion with Trypsin/Lys-C, enrichment with avidin beads were conducted as previously described^26.
# as §1
Structure (SMILES),"probinding activity (blockade of TH211 probe labeling), protein at ˜80 molecular weight (PFKL [1])",SILAC ratios (SR) from competitive chemical proteomic assay (PFKL [4]),further results
"O=S(=O)(c1ccc2c(c1)OCCO2)n1cc(CCN2CCC(=C(c3ccc(F)cc3)c3ccc(F)cc3)CC2)nn1 [XJ-2-77, 4-(Bis(4-fluorophenyl)methylene)-1-(2-(1-((2,3-dihydrobenzo[b][1,4]dioxin-6-yl)sulfonyl-)-1H-1,2,3-triazol-4-yl)ethyl)piperidine]",good probinding activity,,
O=S(=O)(c1ccc2c(c1)OCO2)n1cc(CCN2CCC(=C(c3ccc(F)cc3)c3ccc(F)cc3)CC2)nn1 [XJ-2-87],good probinding activity,,
"C#CCNC(=O)c1cc(Nc2cc(C3CC3)[nH]n2)nc(N2CCN(Cc3ccc(S(=O)(=O)F)cc3)CC2)n1 [XO44, reference compound]",,,time to near-complete depletion of probe in reaction with p-cresol [2]: > 90 min; reaction of probe with n-butylamine [3]: minimal reaction
COc1ccc(S(=O)(=O)n2cc(CCN3CCC(=C(c4ccc(F)cc4)c4ccc(F)cc4)CC3)nn2)cc1,,8.41,"IC50 (PFKL [1]; HEK293T cells, compound 1 h, read-out: IC50 against PFKL, in situ TH211 chemical proteomic assay): 306 nM"
"O=S(=O)(C1CC1)n1cc(CCN2CCC(=C(c3ccc(F)cc3)c3ccc(F)cc3)CC2)nn1 [TH223, 4-(bis(4-fluorophenyl)methylene)-1-(2-(1-(cyclopropylsulfonyl)-1H-1,2,3-triazol-4-yl)ethyl)piperidine]",,0.95,
"Cc1ccc(S(=O)(=O)n2cc(CCN3CCN(C(c4ccc(F)cc4)c4ccc(F)cc4)CC3)nn2)cc1 [TH208, 1-(Bis(4-fluorophenyl)methyl)-4-(2-(1-tosyl-1H-1,2,3-triazol-4-yl)ethyl)piperazine]",,1.04,
"O=S(=O)(c1ccc(F)cc1)n1cc(CCN2CCC(=C(c3ccc(F)cc3)c3ccc(F)cc3)CC2)nn1 [TH221, 4-(Bis(4-fluorophenyl)methylene)-1-(2-(1-((4-fluorophenyl)sulfonyl)-1H-1,2,3-triazol-4-yl)ethyl)piperidine]",,2.48,
"COc1ccccc1S(=O)(=O)n1cc(CCN2CCC(=C(c3ccc(F)cc3)c3ccc(F)cc3)CC2)nn1 [XJ-2-141, 4-(Bis(4-fluorophenyl)methylene)-1-(2-(1-((2-methoxyphenyl)sulfonyl)-1H-1,2,3-triazol-4-yl)ethyl)piperidine]",good probinding activity,,
"O=S(=O)(c1ccc2c(c1)OC(F)(F)O2)n1cc(CCN2CCC(=C(c3ccc(F)cc3)c3ccc(F)cc3)CC2)nn1 [XJ-2-115, 4-(Bis(4-fluorophenyl)methylene)-1-(2-(1-((2,2-difluorobenzo[d][1,3]dioxol-5-yl)sulfonyl)-1H-1,2,3-triazol-4-yl)ethyl)piperidine]",good probinding activity,,
